Laboratory results from patent publication US20060116407A1, “Amide derivatives” (priority 2004, published 2006).

Columns and labels:
HER-2 = target: T1, HER-2 (Homo sapiens, UniProt P04626); test: Inhibition of HER-2 phosphorylation in Calu-3 tumor cell line; assay type: cell-based; conditions: Calu-3 cells, compound 1 μM, 16 h, pY 1248 in HER-2, percentage of DMSO control; read-out: Percent inhibition of HER2-phosphorylation (compound concentration 1 μM)
T1 construct: endogenous in cells; host or cells: Calu-3 (ATCC HTB-55)
Protocol: Inhibition of HER-2 Phosphorylation in Calu-3 Tumor Cell Line
2×10^5 Calu-3 (ATTC HTB-55) cells per well were plated in a 12-well plate. After 4 days cells were starved for 16 h in Dulbecco's Modified Eagle Medium (DMEM)/0.5% Fetal Calf Serum (FCS)/1% Glutamine. During this 16 h period cells were incubated with a solution of the test compound in dimethylsulfoxide(DMSO), so that the final concentration of the compound is 1 μM and the final volume of DMSO is 0.5%. Afterwards cells were lysed in lyses buffer containing 1% Triton®X-100, 10% Glycerol, 1 mM Ethylene glycol-bis(2-aminoethylether)-N,N,N′,N′-tetraacetic acid (EGTA), 1.5 mM MgCl2, 150 mM NaCl, 50 mM 4-(2-hydroxyethyl)-1-piperazineethanesulfonic acid (HEPES) buffer pH 7.5, 1 mM Phenylmethylsulfonyl fluoride (PMSF), 10 ∥g/mL Aprotinin and […] Orthovanadate. Cell lysates were analyzed on a Sodium Dodecyl Sulfate Polyacrylamide Gel Electrophoresis (SDS PAGE) and after transfer to a nitrocellulose membrane detected with an antibody specifically recognizing the pY 1248 in HER-2. Inhibition of HER-2 phosphorylation is calculated as percentage of the control, which is treated with DMSO only.

HEK293 cells = test: Viability assay of HEK293 cells (CellTiter-Glo); assay type: cell-based; conditions: Homo sapiens, 168 h, 7 days, 3 μM to 0.00015 μM, luminescence
Protocol: Viability Assay of HEK293 Cells
A viability assay was performed using the CellTiter-Glo™ Luminescent Cell Viability Assay (see Promega Corporation's Technical Publication No. 288, pp. 1-11 [revised 2.04] which is hereby incorporated by reference in its entirety). This assay is a homogeneous method of determining the number of viable cells in culture based on quantitation of the ATP present, which signals the presence of metabolically active cells. The assay is designed for use with multiwell formats, making it ideal for automated high-throughput screening (HTS), cell proliferation and cytotoxicity assays. The homogeneous assay procedure involves adding a single reagent (containing luciferase, luciferan substrate, and buffer) directly to cells cultured in serum-supplemented medium. Cell washing, removal of medium and multiple pipetting steps are not required. The system detects as few as 15 cells/well in a 384-well format in 10 minutes after adding reagent and mixing.
The homogeneous “add-mix-measure” format results in cell lysis and generation of a luminescent signal proportional to the amount of ATP present. The amount of ATP is directly proportional to the number of cells present in culture. The above-referenced assay generates a “glow-type” luminescent signal, produced by the luciferase reaction, which has a half-life generally greater than five hours, depending on cell type and medium used. The extended half-life eliminates the need to use reagent injectors and provides flexibility for continuous or batch mode processing of multiple plates. The unique homogeneous format avoids errors that may be introduced by other ATP measurement methods that require multiple steps.
HEK293 cells (human embryonic kidney cell line transformed by Adenovirus 5 fragments, ATCC-No. CRL 1573) were cultivated in Dulbecco's Modified Eagle Medium (DMEM) (1×) liquid (high glucose) (which includes L-Alanyl-L-Glutamine [a stabilized a form of L-Glutamine], 4500 mg/L glucose, and 110 mg/L sodium pyruvate) from Invitrogen Corporation (Invitrogen Catalog Number 31966-021 [now 10569-010] which is hereby incorporated by reference in its entirety), 5% Fetal Calf Serum (FCS, Sigma Cat-No. F4135 (FBS) which is hereby incorporated by reference in its entirety), and 100 Units/ml penicillin/100 μg/ml streptomycin(=Pen/Strep from Invitrogen Cat. No. 15140 which is hereby incorporated by reference in its entirety). For the assay the cells were seeded in 384 well plates, 5000 cells per well, in the same medium. The next day the test compounds were added in various concentrations ranging from 3 μM to 0.00015 μM (10 concentrations, 1:3 diluted). After 7 days the above viability assay was performed in accordance with the following steps: • Step 1: The cell-plate was equilibrated to room temperature for approximately 30 minutes and than the assay reagent was added. • Step 2: The contents were carefully mixed for 15 minutes to induce cell lysis. • Step 3: After 45 minutes the luminescent signal was measured in Victor 2, (scanning multiwell spectrophotometer, Wallac). Details: 1st Day: • Medium: Dulbecco's Modified Eagle Medium (DMEM) (1×) liquid (high glucose) (which includes L-Alanyl-L-Glutamine [a stabilized a form/source of L-Glutamine], 4500 mg/L glucose, and 110 mg/L sodium pyruvate) from Invitrogen Corporation (Invitrogen Catalog Number 31966-021 [now 10569-010]), 5% Fetal Calf Serum (FCS, Sigma Cat-No. F4135 (FBS)), and Pen/Strep (Invitrogen Cat. No. 15140). • HEK293 (ATCC-No. CRL 1573): 5000 cells in 60 μl per well of 384 well plate. (Greiner 781098, white plates) • Incubate 24 h at 37° C., 5% CO2 2nd Day: Induction (Substance Testing):
In general the dilution steeps are 1:3 a) Add 8 μl of 10 mM stock solution of compound to 72 μl DMSO b) dilute 9×1:3 (always 30 μl to 60 μl DMSO) in this DMSO dilution row (results in 10 wells with concentrations from 1000 μM to 0.06 μM) c) dilute each concentration 1: 4.8 (10 μl compound dilution to 38 μl medium) […]

T1 sequence (P04626 23-1255): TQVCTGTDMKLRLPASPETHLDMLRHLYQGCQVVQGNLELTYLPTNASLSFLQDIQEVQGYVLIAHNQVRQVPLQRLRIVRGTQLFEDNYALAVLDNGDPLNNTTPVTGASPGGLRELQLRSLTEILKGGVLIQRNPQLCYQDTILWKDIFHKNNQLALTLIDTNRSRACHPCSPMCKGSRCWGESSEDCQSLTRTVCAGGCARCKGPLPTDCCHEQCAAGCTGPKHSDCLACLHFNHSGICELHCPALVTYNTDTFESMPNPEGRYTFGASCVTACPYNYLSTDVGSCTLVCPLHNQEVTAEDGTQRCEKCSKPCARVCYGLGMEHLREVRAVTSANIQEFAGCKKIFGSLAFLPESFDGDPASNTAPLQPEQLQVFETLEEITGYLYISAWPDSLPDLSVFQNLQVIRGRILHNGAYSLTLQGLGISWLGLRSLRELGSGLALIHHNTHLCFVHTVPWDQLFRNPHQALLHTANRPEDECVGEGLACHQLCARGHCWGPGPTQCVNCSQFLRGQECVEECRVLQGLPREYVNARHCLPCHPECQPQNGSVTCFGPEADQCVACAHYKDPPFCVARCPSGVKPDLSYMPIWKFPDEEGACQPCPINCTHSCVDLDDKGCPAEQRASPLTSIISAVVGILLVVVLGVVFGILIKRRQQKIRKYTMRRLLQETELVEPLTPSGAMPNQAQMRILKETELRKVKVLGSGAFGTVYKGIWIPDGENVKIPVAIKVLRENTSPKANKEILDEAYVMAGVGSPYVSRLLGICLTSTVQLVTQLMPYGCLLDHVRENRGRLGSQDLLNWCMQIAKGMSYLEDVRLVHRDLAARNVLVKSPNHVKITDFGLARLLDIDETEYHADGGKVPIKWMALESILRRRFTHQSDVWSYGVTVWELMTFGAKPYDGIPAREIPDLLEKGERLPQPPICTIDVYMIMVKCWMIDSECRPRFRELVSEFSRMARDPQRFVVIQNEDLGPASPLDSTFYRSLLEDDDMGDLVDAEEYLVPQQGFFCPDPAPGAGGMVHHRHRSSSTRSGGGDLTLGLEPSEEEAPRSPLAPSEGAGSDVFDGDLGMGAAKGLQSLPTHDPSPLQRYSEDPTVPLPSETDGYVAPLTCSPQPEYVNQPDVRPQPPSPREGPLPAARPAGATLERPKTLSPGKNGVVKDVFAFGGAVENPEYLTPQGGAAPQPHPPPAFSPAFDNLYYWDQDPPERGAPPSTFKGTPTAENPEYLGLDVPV

inhibition at 1 µM (HER-2) | Structure (SMILES) | IC50 (HEK293 cells)
72% | O=C(Nc1ccc(Cl)cc1F)c1coc(COc2ccc(CCCCn3ccnn3)cc2)n1 [Example 14, 2-[4-(4-[1,2,3]Triazol-1-yl-butyl)-phenoxymethyl]-oxazole-4-carboxylic acid (4-chloro-2-fluoro-phenyl)-amide] | 500 to 3000 nM
70 to 80% | O=C(Nc1nc(COc2ccc(CCCCn3ccnn3)cc2)cs1)c1ccc(Cl)cc1 [Example 52-5, 4-Chloro-N-{4-[4-(4-[1,2,3]triazol-1-yl-butyl)-phenoxymethyl]-thiazol-2-yl}-benzamide] | 5 to 500 nM
55 to 70% | O=C(Nc1ccc(F)cc1)c1coc(COc2ccc(CCCCn3ccnn3)cc2)n1 [Example 31, 2-[4-(4-[1,2,3]Triazol-1-yl-butyl)-phenoxymethyl]-oxazole-4-carboxylic acid (4-fluoro-phenyl)-amide] | 500 to 3000 nM
55 to 70% | O=C(Nc1ccc2c(c1)OC(F)(F)O2)c1coc(COc2ccc(CCCCn3ccnn3)cc2)n1 [Example 9, 2-[4-(4-[1,2,3]Triazol-1-yl-butyl)-phenoxymethyl]-oxazole-4-carboxylic acid (2,2-difluoro-benzo [1,3]dioxol-5-yl)-amide] | 116 nM
